Source: patent US10702504B2, “Degradation of tripartite motif-containing protein 24 (TRIM24) by conjugation of TRIM24 inhibitors with E3 ligase ligand and methods of use” (Dana-Farber Cancer Institute, Inc., priority 2016, dated 2020)

How the values were obtained:
[1] = biological target: PHD-bromodomain of TRIM24 (Homo sapiens (Human), UniProt O15164); assay: TRIM24 binding alpha assay; conditions: Alpha Assay binding to TRIM24; compounds 50 μM to 0.002 μM
Experimental: The alpha TRIM24 binding assay is used to assess the binding of the compounds of the application. Compounds are added at various concentrations as well as a vehicle control. Compounds that bind to TRIM24 compete away the interaction between the PHD-bromodomain of TRIM24 bound to the donor bead, and the H3K23ac histone peptide bound to the acceptor bead, which causes a decrease in signal. IC50 values are calculated.
The alpha assay was used to assess the binding of the compounds of the application to TRIM24 at various concentrations. All compounds were added at concentrations from 50 μM to 0.002 μM. Compounds that bind to TRIM24 compete with the PHD-bromodomain of TRIM24 in interacting with the donor bead, and the H3K23ac histone peptide bound to the acceptor bead, which causes a decrease in signal. IC50 values were calculated by using Graphpad PRISM's log(inhibitor) vs. response—variable slope (four parameters).

[2] = biological target: TRIM24 (Homo sapiens (Human), UniProt O15164); assay: Destabilization of TRIM24 over time in MCF7 cells (immunoblot); assay type: cell-based
Sequence of TRIM24 (O15164 whole entry): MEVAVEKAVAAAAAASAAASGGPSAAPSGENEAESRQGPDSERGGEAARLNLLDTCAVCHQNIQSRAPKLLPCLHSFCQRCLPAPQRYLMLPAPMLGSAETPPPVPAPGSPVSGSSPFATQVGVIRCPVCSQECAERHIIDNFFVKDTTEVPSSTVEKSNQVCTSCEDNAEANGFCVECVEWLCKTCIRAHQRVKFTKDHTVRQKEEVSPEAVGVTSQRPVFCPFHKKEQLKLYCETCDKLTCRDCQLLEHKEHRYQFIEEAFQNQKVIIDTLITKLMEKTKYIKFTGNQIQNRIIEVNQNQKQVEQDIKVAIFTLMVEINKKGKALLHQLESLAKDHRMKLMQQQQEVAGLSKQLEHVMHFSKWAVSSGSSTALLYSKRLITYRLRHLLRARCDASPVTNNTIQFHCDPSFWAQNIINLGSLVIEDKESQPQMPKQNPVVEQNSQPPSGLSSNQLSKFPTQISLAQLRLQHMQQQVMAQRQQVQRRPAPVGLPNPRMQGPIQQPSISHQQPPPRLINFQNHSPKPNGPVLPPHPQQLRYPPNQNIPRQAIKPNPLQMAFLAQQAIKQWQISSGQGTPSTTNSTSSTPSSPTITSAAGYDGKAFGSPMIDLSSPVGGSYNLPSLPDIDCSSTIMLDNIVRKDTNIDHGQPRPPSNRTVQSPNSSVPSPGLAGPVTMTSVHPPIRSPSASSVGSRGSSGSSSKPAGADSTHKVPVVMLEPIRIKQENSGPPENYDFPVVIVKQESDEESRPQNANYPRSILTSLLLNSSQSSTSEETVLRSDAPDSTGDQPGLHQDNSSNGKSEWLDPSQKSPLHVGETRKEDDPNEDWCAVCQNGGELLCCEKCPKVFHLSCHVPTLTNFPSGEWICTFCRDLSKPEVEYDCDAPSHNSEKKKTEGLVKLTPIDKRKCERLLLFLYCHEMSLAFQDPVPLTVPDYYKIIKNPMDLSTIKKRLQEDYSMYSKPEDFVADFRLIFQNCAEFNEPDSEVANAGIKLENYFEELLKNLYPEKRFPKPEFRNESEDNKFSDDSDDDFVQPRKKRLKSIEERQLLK
Experimental: Wild-type or cereblon null 293T cells, or MCF7 cells, were treated with compounds of the application. The cells were treated for 4 hours or 18 hours with representative compounds at a final concentration of 10 μM, 5 μM, or 0.5 μM, or with a vehicle control. Cells were harvested and lysed using RIPA buffer with Halt protease inhibitors and 0.1% benzonase on ice for 15 minutes. The amount of total protein was quantified using the BCA assay. Primary antibodies used were TRIM24 (Cell Signaling Technology) as well as actin (Santa Cruz). Blots were imaged using secondary antibodies (LI-COR) on the OdysseyCLxImager. Band intensities were quantified using the LI-COR software. TRIM24 signal was normalized to the actin loading control. The signal intensity of TRIM24 from cells treated with DMSO was set to 1, and all other treatment conditions were normalized to the DMSO condition per immunoblot to determine the level of TRIM24, which was expressed as a ratio to the TRIM24 level in the DMSO treated cells.
In addition. MCF7 cells were treated for 24, 48, and 72 hours with representative compounds of the application at 5 μM.

Sequence of PHD-bromodomain of TRIM24 (O15164 824-1006): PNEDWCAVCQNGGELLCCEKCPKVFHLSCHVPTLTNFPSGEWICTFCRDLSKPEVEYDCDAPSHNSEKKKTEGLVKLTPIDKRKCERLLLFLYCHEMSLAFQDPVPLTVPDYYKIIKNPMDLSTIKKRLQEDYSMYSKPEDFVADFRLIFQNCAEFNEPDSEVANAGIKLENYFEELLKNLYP

## CCCOc1cccc(Oc2cc3c(cc2NS(=O)(=O)c2cccc(C(=O)NCCOCCOCCOCC(=O)N[C@H](C(=O)N4C[C@H](O)C[C@H]4C(=O)NCc4ccc(-c5scnc5C)cc4)C(C)(C)C)c2)n(C)c(=O)n3C)c1 [I-B3, (2S,4R)-1-((S)-15-(tert-butyl)-1-(3-(N-(1,3-dimethyl-2-oxo-6-(3-propoxyphenoxy)-2,3-dihydro-1H-benzo[d]imidazol-5-yl)sulfamoyl)phenyl)-1,13-dioxo-5,8,11-trioxa-2,14-diazahexadecan-16-oyl)-4-hydroxy-N-(4-(4-methylthiazol-5-yl)benzyl)pyrrolidine-2-carboxamide]
[1]
  IC50: 50 to 100 nM
[2]; 5 μM, 24, 48 and 72 hours
  level of TRIM24 compared to vehicle: significantly reduced
[2]; 5 μM, 24 h to 72 h
  decrease in the level of TRIM24 over time: continued over a 24 h to 72 h period
